The results in this text go back to patent US20140005164A1, “WNT PATHWAY ANTAGONISTS” (Siena Biotech S.p.A., priority 2011, published 2014).

For the experiment, the system named is Wnt/β-catenin pathway. The experiment in a line: Wnt reporter assay (TCF-Luciferase, Firefly) in DBTRG-05MG cells. In kind it is cell-based. As to conditions: Homo sapiens, read-out: IC50 value in the reporter assay. The procedure:
Three copies of a 4×TCF responsive elements were cloned into the pcDNA3.1/Zeo(+) vector (Invitrogen) after deletion of the constitutive CMV promoter and the insertion of the Firefly Luciferase from Promega (phFL-TK) to measure the activity of the Wnt/β-catenin pathway. The resulting plasmid was sequenced for quality control.
Cells were grown in 20 μg/ml Zeocin and 20 μg/ml Zeocin plus 30 μg/ml Hygromicin respectively. The cells were plated at a density of 6500 cells/well in poly-D-lysine pre-treated 96 well-plates.
36 hours after plating cells were incubated with 8-points dilutions compound (0.6% DMSO (v/v)). Each compound was tested in triplicate in single plate. Luciferase detection was done with Dual-Luciferase Reporter Assay System (Promega). 24 hours after compound addition, media was removed and 30 μl of 1× lysis buffer was added to each well for 30 minutes. To each well 45 μl of Dual-Glo Luciferase reagent (Promega) were added and after 1 second delay Luciferase was detected for 1 second using Mithras LB940 instrument. After Firefly luciferase quantification 45 μl of Dual Stop & Glo reagent (Promega) were added to each well and […] Renilla was detected using the same parameters described before.
Data were expressed as % of control for Firefly and Renilla luciferase independently; values were calculated using XLFit version 4.2, with a four parameters sigmoid function (XLFit model 205).

Where [1] appears, read: TCF-Luciferase (Firefly) read out, 24 hours after compound addition, range given with mixed units nM and μM.

Like-named read-outs stand apart in the source and are kept apart here.

As to `COc1ccc2c(c1)n(C[C@H]1CC[C@H](C(=O)N3CCN(c4ncccn4)CC3)CC1)c(=O)n2C` [Example 2, 5-Methoxy-1-methyl-3-[trans-4-(4-pyrimidin-2-yl-piperazine-1-carbonyl)-cyclohexylmethyl]-1,3-dihydro-benzoimidazol-2-one], the IC50 under setting [1] lay in the range of 35 to 23000 nM.

For `Cn1c(=O)n(C[C@H]2CC[C@H](C(=O)N3CCN(c4ncccn4)CC3)CC2)c2ccc(Cl)cc21` [Example 55], the IC50 under setting [1] was in the range of 35 to 23000 nM.

Regarding `COc1ccc2c(c1)n(C[C@H]1CC[C@H](c3nnc(-c4c(C)nn(C)c4C)o3)CC1)c(=O)n2C` [Example 148], the IC50 under setting [1] lay within 35 to 23000 nM.

In the case of `COc1ccc2c(c1)n(C[C@H]1CC[C@H](C(=O)Nc3ccncc3C)CC1)c(=O)n2C` [Example 30], the 50% inhibitory concentration (IC50) under setting [1] was 35 to 23000 nM.

Regarding `COc1cc2c(cc1F)n(C)c(=O)n2C[C@H]1CC[C@H](C(=O)N2CCOCC2)CC1` [Example 160], under setting [1], the 50% inhibitory concentration (IC50) fell in the range of 35 to 23000 nM.

`COc1cccc(COc2ccc3c(n2)n(C[C@H]2CC[C@H](C(=O)Nc4ccncc4)CC2)c(=O)n3C)c1` [Example 10, Trans-4-[5-(3-Methoxy-benzyloxy)-1-methyl-2-oxo-1,2-dihydro-imidazo[4,5-b]pyridin-3-ylmethyl]-cyclohexane carboxylic acid pyridin-4-ylamide]: the concentration for half-maximal inhibition (IC50) (24 h) was in the range of 35 to 23000 nM.

Turning to `CN(C)CC#Cc1ccc2c(n1)n(C[C@H]1CC[C@H](C(=O)Nc3ccncc3)CC1)c(=O)n2C` [Example 119], the IC50 under setting [1] was 35 to 23000 nM.

Turning to `CC(=O)N1CCN(C(=O)[C@H]2CC[C@H](Cn3c(=O)n(C)c4ccc(Br)nc43)CC2)CC1` [Example 3, 3-[trans 4-(4-Acetyl-piperazine-1-carbonyl)cyclohexylmethyl]-5-bromo-1-methyl-1,3-dihydro-imidazo[4,5-b]pyridin-2-one], the IC50 under setting [1] was 35 to 23000 nM.

As for `Cn1c(=O)n(C[C@H]2CC[C@H](C(=O)Nc3ccncc3)CC2)c2nc(C3CC3)ccc21` [Example 170], under setting [1], the IC50 was 35 to 23000 nM.

For `COc1ccc2c(c1)n(C[C@H]1CC[C@H](C(=O)N3CCN(c4ccn(C)n4)CC3)CC1)c(=O)n2C` [Example 132], under setting [1], the IC50 lay within 35 to 23000 nM.

As to `Cn1c(=O)n(C[C@H]2CC[C@H](C(=O)Nc3ccncc3)CC2)c2cc(OC(F)F)ccc21` [Example 165], the IC50 under setting [1] was in the range of 35 to 23000 nM.

For `COc1cc(NC(=O)[C@H]2CC[C@H](Cn3c(=O)n(C)c4c(Cl)cccc43)CC2)ccn1` [Example 58], under setting [1], the IC50 fell in the range of 35 to 23000 nM.

With `Cn1c(=O)n(C[C@H]2CC[C@H](C(=O)N3CCN(c4nccs4)CC3)CC2)c2cccc(Cl)c21` [Example 56], under setting [1], the half-maximal inhibitory concentration (IC50) was 35 to 23000 nM.

On to `COc1ccc2c(c1)n(C[C@H]1CC[C@H](C(=O)N3CC4CCC(C3)O4)CC1)c(=O)n2C` [Example 63], for which the IC50 under setting [1] is 35 to 23000 nM.

Take `COc1ccc2c(c1)n(C[C@H]1CC[C@H](C(=O)N3CCN(C(=O)[C@H]4CCC(=O)O4)CC3)CC1)c(=O)n2C` [Example 75]: the IC50 under setting [1] is 35 to 23000 nM.

With `COc1ccc2c(c1)n(C[C@H]1CC[C@H](C(=O)N3CCC4(CC3)OCCO4)CC1)c(=O)n2C` [Example 86], the IC50 (24 h) was in the range of 35 to 23000 nM.

For `COc1ccc2c(c1)n(C[C@H]1CC[C@H](C(=O)N3CCN(c4nccs4)CC3)CC1)c(=O)n2C` [Example 27], the IC50 under setting [1] was 35 to 23000 nM.

For the molecule `COc1ccc2c(c1)n(C[C@H]1CC[C@H](c3c[nH]c(NC(C)=O)n3)CC1)c(=O)n2C` [Example 19, N-{4-[trans-4-(6-Methoxy-3-methyl-2-oxo-2,3-dihydro-benzoimidazol-1-ylmethyl)-cyclohexyl]-1H-imidazol-2-yl}-acetamide], the IC50 under setting [1] was 35 to 23000 nM.

On to `COc1ccc2c(c1)n(C[C@H]1CC[C@H](c3nnc(-c4ccnnc4)o3)CC1)c(=O)n2C` [Example 164], for which the IC50 under setting [1] fell in the range of 35 to 23000 nM.

In the case of `COCCOc1ccc2c(n1)n(C[C@H]1CC[C@H](C(=O)Nc3ccnnc3)CC1)c(=O)n2C` [Example 173], under setting [1], the IC50 was in the range of 35 to 23000 nM.

As for `COc1ccc2c(c1)n(C[C@H]1CC[C@H](C(=O)N3CCC(F)(F)C3)CC1)c(=O)n2C` [Example 44], under setting [1], the IC50 fell in the range of 35 to 23000 nM.

As for `COc1ccc2c(c1)n(C[C@H]1CC[C@H](C(=O)Nc3cccc4ncccc34)CC1)c(=O)n2C` [Example 188], the IC50 under setting [1] lay in the range of 35 to 23000 nM.

As to `COC/C=C/c1ccc2c(c1)n(C[C@H]1CC[C@H](C(=O)Nc3ccncc3)CC1)c(=O)n2C` [Example 113], the IC50 under setting [1] is 35 to 23000 nM.

As to `COCCOc1ccc2c(c1)n(C[C@H]1CC[C@H](c3nnc(-c4cccnn4)o3)CC1)c(=O)n2C` [Example 163], under setting [1], the IC50 was in the range of 35 to 23000 nM.

For `COc1ccc2c(c1)n(C[C@H]1CC[C@H](C(=O)N3CCN(c4ncc(Br)cn4)CC3)CC1)c(=O)n2C` [Example 80], the IC50 under setting [1] is 35 to 23000 nM.

Turning to `COc1ccc2c(c1)n(C[C@H]1CC[C@H](C(=O)N3CCC(F)(F)CC3)CC1)c(=O)n2C` [Example 35], the IC50 under setting [1] lay in the range of 35 to 23000 nM.

Consider `COc1ccc2c(c1)n(C[C@H]1CC[C@H](c3nnc(-c4ccncn4)o3)CC1)c(=O)n2C` [Example 117], for which the IC50 under setting [1] is 35 to 23000 nM.

As to `COc1ccc2c(c1)n(C[C@H]1CC[C@H](c3nnc(-c4ccncc4)o3)CC1)c(=O)n2C` [Example 97], the 50% inhibitory concentration (IC50) under setting [1] was in the range of 35 to 23000 nM.

Consider `COCCOc1ccc2c(c1)n(C[C@H]1CC[C@H](c3nnc(-c4cccnc4)o3)CC1)c(=O)n2C` [Example 146], for which the IC50 under setting [1] lay within 35 to 23000 nM.

In the case of `Cn1c(=O)n(C[C@H]2CC[C@H](C(=O)Nc3ccncc3)CC2)c2ncccc21` [Example 142], the 50% inhibitory concentration (IC50) under setting [1] was 35 to 23000 nM.

In the case of `COCC#Cc1ccc2c(n1)n(C[C@H]1CC[C@H](C(=O)N3CCN(C(C)=O)CC3)CC1)c(=O)n2C` [Example 102], the IC50 under setting [1] lay in the range of 35 to 23000 nM.

On to `Cn1c(=O)n(C[C@H]2CC[C@H](C(=O)Nc3ccncc3)CC2)c2cc(OCCF)ccc21` [Example 137], for which the IC50 under setting [1] fell in the range of 35 to 23000 nM.

For the molecule `CONC(=O)C1CCN(C(=O)[C@H]2CC[C@H](Cn3c(=O)n(C)c4ccc(OC)cc43)CC2)CC1` [Example 85], the IC50 under setting [1] was in the range of 35 to 23000 nM.

For `COC/C=C/c1ccc2c(n1)n(C[C@H]1CC[C@H](C(=O)N3CCN(C(C)=O)CC3)CC1)c(=O)n2C` [Example 4, 3-[Trans-4-(4-Acetyl-piperazine-1-carbonyl)-cyclohexylmethyl]-5-((E)-3-methoxy-propenyl)-1-methyl-1,3-dihydro-imidazo[4,5-b]pyridin-2-one], the IC50 under setting [1] was 35 to 23000 nM.

In the case of `COCCN(C)c1ncccc1NC(=O)[C@H]1CC[C@H](Cn2c(=O)n(C)c3ccc(OC)cc32)CC1` [Example 45], the IC50 under setting [1] was 35 to 23000 nM.

Take `COc1ccc2c(c1)n(C[C@H]1CC[C@H](C(=O)N3CCSCC3)CC1)c(=O)n2C` [Example 62]: the IC50 under setting [1] lay in the range of 35 to 23000 nM.

On to `COCCNc1ccc2c(n1)n(C[C@H]1CC[C@H](C(=O)Nc3ccncc3)CC1)c(=O)n2C` [Example 125], for which the IC50 under setting [1] lay in the range of 35 to 23000 nM.

In the case of `COCCOc1ccc2c(c1)n(C[C@H]1CC[C@H](C(=O)Nc3ccncn3)CC1)c(=O)n2C` [Example 122], the IC50 under setting [1] was in the range of 35 to 23000 nM.

`COc1ccc2c(c1)n(C[C@H]1CC[C@H](c3nnc(-c4ccn(C)n4)o3)CC1)c(=O)n2C` [Example 110]: the IC50 under setting [1] is 35 to 23000 nM.

With `Cn1c(=O)n(C[C@H]2CC[C@H](C(=O)Nc3ccncc3)CC2)c2nc(NCc3ccco3)ccc21` [Example 127], under setting [1], the IC50 is 35 to 23000 nM.

Regarding `Cn1c(=O)n(C[C@H]2CC[C@H](C(=O)Nc3ccncc3)CC2)c2nc(OCc3ccccn3)ccc21` [Example 156], the IC50 under setting [1] was in the range of 35 to 23000 nM.

As to `Cn1c(=O)n(C[C@H]2CC[C@H](C(=O)N3CCN(c4nccs4)CC3)CC2)c2ccc(Cl)cc21` [Example 54], the IC50 under setting [1] was in the range of 35 to 23000 nM.

Consider `COc1ccc2c(c1)n(C[C@H]1CC[C@H](c3nnc(-c4cc(C)nn4C)o3)CC1)c(=O)n2C` [Example 149], for which the IC50 under setting [1] is 35 to 23000 nM.

Regarding `COc1ccc2c(c1)n(C[C@H]1CC[C@H](c3nnc(-c4ccc(OC)c(F)c4)o3)CC1)c(=O)n2C` [Example 112], the IC50 under setting [1] was 35 to 23000 nM.

For `Cn1c(=O)n(C[C@H]2CC[C@H](C(=O)Nc3ccncc3)CC2)c2nc(OCC(F)(F)F)ccc21` [Example 171], the IC50 under setting [1] was 35 to 23000 nM.

On to `COc1ccc2c(c1)n(C[C@H]1CC[C@H](c3nnc(-c4cn(C)nc4C(F)(F)F)o3)CC1)c(=O)n2C` [Example 11, 5-Methoxy-1-methyl-3-{trans 4-[5-(1-methyl-3-trifluoromethyl-1H-pyrazol-4-yl)-[1,3,4]oxadiazol-2-yl]-cyclohexylmethyl}-1,3-dihydro-benzoimidazol-2-one], for which the IC50 under setting [1] lay within 35 to 23000 nM.

On to `COc1ccc2c(c1)n(C[C@H]1CC[C@H](C(=O)N3CCN(c4nccc(OC)n4)CC3)CC1)c(=O)n2C` [Example 51], for which the IC50 under setting [1] was in the range of 35 to 23000 nM.

Take `COc1ccc2c(c1)n(C[C@H]1CC[C@H](C(=O)N3CCC(c4ncccn4)CC3)CC1)c(=O)n2C` [Example 82]: under setting [1], the IC50 is 35 to 23000 nM.

For `COc1ccc(-c2nc([C@H]3CC[C@H](Cn4c(=O)n(C)c5ccc(OC)cc54)CC3)no2)cc1` [Example 18, 5-Methoxy-3-{trans-4-[5-(4-methoxy-phenyl)[1,2,4]oxadiazol-3-yl]-cyclohexylmethyl}-1-methyl-1,3-dihydro-benzoimidazol-2-one], the IC50 under setting [1] was in the range of 35 to 23000 nM.

For the molecule `COc1ccc2c(c1)n(C[C@H]1CC[C@H](c3nnc(-c4csc(C)n4)o3)CC1)c(=O)n2C` [Example 99], the IC50 under setting [1] is 35 to 23000 nM.

Turning to `COCCOc1ccc2c(c1)n(C[C@H]1CC[C@H](C(=O)N3CCN(c4ccncc4)CC3)CC1)c(=O)n2C` [Example 157], the IC50 under setting [1] was 35 to 23000 nM.
